One may read the MIC as the least concentration at which growth counts as inhibited.

Each structure is given as a SMILES string. Values after ≈ are worked out from the molar mass of the structure shown.

What all share (type): functional
Test [1] deals with Mycobacterium tuberculosis. The test can be described thus: Antitubercular activity against Mycobacterium tuberculosis H37Rv assessed as growth inhibition at >6.25 ug/ml by primary screen assay.
Test [2] concerns Mycobacterium tuberculosis. The test can be described thus: Antitubercular activity against Mycobacterium tuberculosis H37Rv assessed as growth inhibition by primary screen assay.
The subject of test [3] is Mycobacterium tuberculosis. The test can be described thus: Antitubercular activity against Mycobacterium tuberculosis H37Rv assessed as growth inhibition by secondary screen assay.
Test [4] concerns Mycobacterium tuberculosis. Put plainly: Antitubercular activity against Mycobacterium tuberculosis H37Rv assessed as growth inhibition at <6.25 ug/ml by primary screen assay.

`Cc1ccc(-n2cc(/C=N/n3c(-c4cccc(C)c4)nc4ccccc4c3=O)c(-c3ccncc3)n2)cc1`: the “inhibition (INH)” value in test [1] worked out at 70%. Further, in test [2], the MIC was greater than 6.25 µg/mL.

As for `NNC(=O)c1ccncc1` [ISONIAZID], the MIC in test [2] was less than 6.25 µg/mL; in test [3], 0.125 µg/mL (≈ 0.911 µM).

As to `COc1ccccc1-c1nc2ccccc2c(=O)n1/N=C/c1cn(-c2ccc(C)cc2)nc1-c1ccncc1`, the figures for the MIC in test [2] and in test [3] were less than 6.25 µg/mL and less than 3.12 µg/mL, respectively. In addition, the “inhibition (INH)” value in test [4] came out at 93%.

For the compound `COc1cccc(-c2nc3ccccc3c(=O)n2/N=C/c2cn(-c3ccc(C)cc3)nc2-c2ccncc2)c1`, the “inhibition (INH)” value in test [1] was found to be 64%. In test [2], the minimal inhibitory concentration (MIC) was greater than 6.25 µg/mL.

As for `Cc1ccc(-n2cc(/C=N/n3c(-c4ccccc4C)nc4ccccc4c3=O)c(-c3ccncc3)n2)cc1`, the MIC in test [2] is less than 6.25 µg/mL; in test [3], less than 3.12 µg/mL. Besides, in test [4], the “inhibition (INH)” value is reported as 94%.

For the compound `Cc1ccc(-n2cc(/C=N/n3c(-c4ccccc4[N+](=O)[O-])nc4ccccc4c3=O)c(-c3ccncc3)n2)cc1`, the “inhibition (INH)” value in test [1] amounted to 73%. In addition, the MIC in test [2] is greater than 6.25 µg/mL.

`COc1ccc(-c2nc3ccccc3c(=O)n2/N=C/c2cn(-c3ccc(C)cc3)nc2-c2ccncc2)cc1`: the “inhibition (INH)” value in test [1] came out at 59%. Further, the MIC in test [2] was greater than 6.25 µg/mL.

On to `Cc1ccc(-c2nc3ccccc3c(=O)n2/N=C/c2cn(-c3ccc(C)cc3)nc2-c2ccncc2)cc1`, for which, in test [1], the “inhibition (INH)” value was 67%. Moreover, the minimal inhibitory concentration (MIC) in test [2] was greater than 6.25 µg/mL.

On to `Cc1ccc(-n2cc(/C=N/n3c(-c4cccc(Cl)c4)nc4ccccc4c3=O)c(-c3ccncc3)n2)cc1`, for which the “inhibition (INH)” value in test [1] was found to be 68%. Moreover, in test [2], the minimum inhibitory concentration (MIC) is greater than 6.25 µg/mL.

Turning to `Cc1ccc(-n2cc(/C=N/n3c(-c4ccc(Cl)cc4)nc4ccccc4c3=O)c(-c3ccncc3)n2)cc1`, the MIC in test [2] is less than 6.25 µg/mL; in test [3], less than 3.12 µg/mL. The “inhibition (INH)” value in test [4] is reported as 90%.

Regarding `Cc1ccc(-n2cc(/C=N/n3c(-c4ccccc4Cl)nc4ccccc4c3=O)c(-c3ccncc3)n2)cc1`, the minimal inhibitory concentration (MIC) in test [2] was less than 6.25 µg/mL; in test [3], less than 3.12 µg/mL. For the same compound, the “inhibition (INH)” value in test [4] is recorded as 96%.

Turning to `Cc1ccc(-n2cc(/C=N/n3c(-c4cccc([N+](=O)[O-])c4)nc4ccccc4c3=O)c(-c3ccncc3)n2)cc1`, the MIC in test [2] is less than 6.25 µg/mL; in test [3] it was less than 3.12 µg/mL. Moreover, the “inhibition (INH)” value in test [4] amounted to 92%.

With `Cc1ccc(-n2cc(/C=N/n3c(-c4ccc([N+](=O)[O-])cc4)nc4ccccc4c3=O)c(-c3ccncc3)n2)cc1`, the “inhibition (INH)” value in test [1] amounted to 67%. The minimal inhibitory concentration (MIC) in test [2] is greater than 6.25 µg/mL.

The values are drawn from ChEMBL document CHEMBL3046497, “Synthesis and antitubercular activity of novel pyrazolequinazolinone hybrid analogs” (2013).
